These are literature values, as cited in patent publication US20260207540A1 (priority 2020, published 2026).

The test system of series [1] is SRCR (scavenger receptor cysteine-rich) domain. To be noted: proteins with calcium binding sites similar to host protease TMPRSS2.
The conditions of series [2]: inhalation challenge 0.25 to 10.0 mg/mL.
For series [3] the following is noted: 1 microgram/kg IV, canines.

With `O=C(O)CN(CCN(CC(=O)O)CC(=O)O)CC(=O)O` [EDTA, ethylenediamine tetraacetic acid], in the series with Rubella virus (in the "test tube"), the Rubella virus infection entry is “prevented”. In the series with Rubella virus (in vitro, addition of the calcium chelator), the Rubella fusion result is reported as “completely abrogated”. The calcium-dependent binding result in series [1] is given as “disrupted”. Moreover, the bronchoconstriction entry in series [2] was “concentration-dependent bronchoconstriction”.

As for albuterol sulfate, in series [3], the EDTA-induced bronchoconstriction result was “significantly attenuated”.
